From paper PMC3125470 (Biochemistry, 2011)

Molecular target: T1, MsPat (MSMEG_5458) (Mycolicibacterium smegmatis, UniProt A0R3F9)
T1 sequence (A0R3F9 1-333): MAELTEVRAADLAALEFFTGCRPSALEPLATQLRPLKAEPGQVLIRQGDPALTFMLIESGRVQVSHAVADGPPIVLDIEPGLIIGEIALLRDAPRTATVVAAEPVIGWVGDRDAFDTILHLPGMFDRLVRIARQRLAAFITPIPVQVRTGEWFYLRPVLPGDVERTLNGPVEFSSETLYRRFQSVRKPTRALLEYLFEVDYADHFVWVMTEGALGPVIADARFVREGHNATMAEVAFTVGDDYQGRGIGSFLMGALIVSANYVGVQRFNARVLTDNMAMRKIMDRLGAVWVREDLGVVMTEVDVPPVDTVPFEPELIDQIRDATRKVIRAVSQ
Experiment: fluorescent labeling of ACS and time-dependent ACS inactivation
Format: biochemical
Conditions: 1 mM cGMP in place of cAMP; weak activator, allosteric

Nc1nc2c(ncn2[C@@H]2O[C@@H]3COP(=O)(O)O[C@H]3[C@H]2O)c(=O)[nH]1 [cGMP]
fluorescent labeling of ACS and time-dependent ACS inactivation: Much weaker labeling of ACS was observed when cAMP was replaced with cGMP
